# Experimental data: patent publication US10647719B2, “Bicyclic compounds as dual ATX/CA inhibitors” (Hoffmann-La Roche Inc., priority 2015, dated 2020)
# Where two headings read alike, the source gives them in different places.
# How the values were obtained:
# [1] = biological target: Human carbonic anhydrase II (hCA-II) (Homo sapiens (Human), UniProt P00918); experiment: Human carbonic anhydrase-II inhibition assay (absorbance, 4-nitrophenyl acetate substrate); type: biochemical
# Method: Human Carbonic Anhydrase-II Inhibition Assay
# Human carbonic anhydrase II (hCA-II) inhibition was measured by an absorbance method using 4-nitrophenyl acetate (4-NPA) as its substrate. 4-NPA can be catalyzed by active hCA II via a zinc-hydroxide mechanism. The nitrophenolate in the products can be ionized to generate a bright yellow anion with high absorbance at 348 to 400 nm, as reported in the literature (Armstrong et al., J. Biol. Chem. 1966, 241, 5137-5149). OD340 nm was chosen for detecting hCA II substrate conversion.
# (§1) Assay working solutions were made as follows:
# Assay buffer: 50 mM MOPS, 33 mM Na2SO4, 1 mM EDTA, 0.5 mg/ml BSA, pH 7.5;
# Enzyme solution: hCA-II (human, full length) stock solution (1.0 mg/mL in 20 mM HEPES, 50 mM NaCl, pH 7.4), diluted to 2133× final concentration in assay buffer;
# 4-NPA substrate solution: 4-NPA substrate stock solution (250 mM in DMSO, stored at −20° C.), diluted to 50× final concentration in deionized water.
# Test compounds (10 mM stock in DMSO, 100 μL) were obtained in […] sample plates (Corning Costar #3655) and diluted to 0.5 mM. Column-wise serial dilutions were made by transferring 20 μL compound solutions to the next column, from column 3 up to 22. After this, 1.2 μL were transferred to 384 well assay plates (Corning Costar #3701). Then 30 μL of 16 nM hCA II solution was added (8 nM final concentration), mixed five times. 30 μL of 4-NPA substrate solution was added (2.5 mM final concentration), mixed five times. Absorbance at 340 nm was then measured immediately as time zero. The assay plates were incubated at room temperature for 1 hour and then measured as time 1 hour (Perkin Elmer EnVision 2103; Filter: Photometric 340; Light intensity 60%; Number of flashes: 10). IC50 values and Ki values were calculated from these readouts.
# [2] = biological target: human ATX (Homo sapiens (Human), UniProt Q13822); experiment: Human ATX enzyme inhibition assay (fluorescence quenching, MR121 substrate); type: biochemical
# Method: Human ATX Enzyme Inhibition Assay
# ATX inhibition was measured by a fluorescence quenching assay using a specifically labeled substrate analogue (MR121 substrate). To obtain this MR121 substrate, BOC and TBS protected 6-amino-hexanoic acid (R)-3-({2-[3-(2-{2-[2-(2-amino-ethoxy)-ethoxy]-ethoxy}-ethoxy)-propionylamino]-ethoxy}-hydroxy-phosphoryloxy)-2-hydroxy-propyl ester (Ferguson et al., Org Lett 2006, 8 (10), 2023) was labeled with MR121 fluorophore (CAS 185308-24-1, 1-(3-carboxypropyl)-11-ethyl-1,2,3,4,8,9,10,11-octahydro-dipyrido[3,2-b:2′,3′-i]phenoxazin-13-ium) on the free amine of the ethanolamine side and then, after deprotection, subsequently with tryptophan on the side of the aminohexanoic acid.
# as §1
# Assay buffer (50 mM Tris-HCl, 140 mM NaCl, 5 mM KCl, 1 mM CaCl2, 1 mM MgCl2, 0.01% Triton-X-100, pH 8.0;
# ATX solution: ATX (human His-tagged) stock solution (1.08 mg/mL in 20 mM bicine, pH 8.5, 0.15 M NaCl, 10% glycerol, 0.3% CHAPS, 0.02% NaN3), diluted to 1.4-2.5× final concentration in assay buffer;
# MR121 substrate solution: MR121 substrate stock solution (800 μM MR121 substrate in DMSO), diluted to 2-5× final concentration in assay buffer.
# Test compounds (10 mM stock in DMSO, 8 μL) were obtained in 384 well sample plates (Corning Costar #3655) and diluted with 8 μL DMSO. Row-wise serial dilutions were made by transferring 8 μL cpd solution to the next row up to row O. The compound and control solutions were mixed five times and 2 μL were transferred to 384 well assay plates (Corning Costar #3702). Then, 15 μL of 41.7 nM ATX solution was added (30 nM final concentration), mixed five times and then incubated for 15 minutes at 30° C. 10 μL of MR121 substrate solution was added (1 μM final concentration), mixed 30 times and then incubated for 15 minutes at 30° C.
# [3] = hCA II 8 nM, 4-NPA 2.5 mM, absorbance 340 nm, room temperature 1 hour, read-out: CA-II IC50
# [4] = human His-tagged ATX 30 nM, MR121 substrate 1 μM, 30° C., read-out: ATX IC50
SMILES,"IC50 [1, 3]","IC50 [2, 4]",IC50 [1],IC50 [2]
"CC(C)(C)C(=O)Nc1cc(C(F)(F)F)cnc1COC(=O)N1CC2=C(C1)CN(C(=O)c1ccc(S(N)(=O)=O)cc1)C2 [Example 1.00, [3-(2,2-Dimethylpropanoylamino)-5-(trifluoromethyl)pyridin-2-yl]methyl 2-(4-sulfamoylbenzoyl)-1,3,4,6-tetrahydropyrrolo[3,4-c]pyrrole-5-carboxylate]",14 nM,6 nM,,
"CC(C)(C)C(=O)Nc1cc(C(F)(F)F)cnc1COC(=O)N1CC2=C(C1)CN(C(=O)c1cc(F)c(S(N)(=O)=O)cc1F)C2 [Example 1.01, [3-(2,2-dimethylpropanoylamino)-5-(trifluoromethyl)pyridin-2-yl]methyl 2-(2,5-difluoro-4-sulfamoylbenzoyl)-1,3,4,6-tetrahydropyrrolo[3,4-c]pyrrole-5-carboxylate]",7 nM,10 nM,,
"CC(C)(C)C(=O)Nc1cc(C(F)(F)F)cnc1COC(=O)N1CC2=C(C1)CN(C(=O)c1ccc(S(N)(=O)=O)c(Cl)c1)C2 [Example 1.02, [3-(2,2-dimethylpropanoylamino)-5-(trifluoromethyl)pyridin-2-yl]methyl 2-(3-chloro-4-sulfamoylbenzoyl)-1,3,4,6-tetrahydropyrrolo[3,4-c]pyrrole-5-carboxylate]",10 nM,5 nM,,
"CC(C)(C)C(=O)Nc1cc(C(F)(F)F)cnc1COC(=O)N1CC2=C(C1)CN(C(=O)c1ccc(S(N)(=O)=O)c(F)c1)C2 [Example 1.03, [3-(2,2-dimethylpropanoylamino)-5-(trifluoromethyl)pyridin-2-yl]methyl 2-(3-fluoro-4-sulfamoylbenzoyl)-1,3,4,6-tetrahydropyrrolo[3,4-c]pyrrole-5-carboxylate]",9 nM,5 nM,,
"CC(C)(C)C(=O)Nc1cc(C(F)(F)F)cnc1COC(=O)N1CC2=C(C1)CN(C(=O)c1ccc(S(N)(=O)=O)cc1F)C2 [Example 1.04, [3-(2,2-dimethylpropanoylamino)-5-(trifluoromethyl)pyridin-2-yl]methyl 2-(2-fluoro-4-sulfamoylbenzoyl)-1,3,4,6-tetrahydropyrrolo[3,4-c]pyrrole-5-carboxylate]",5 nM,4 nM,,
"CC(C)(C)C(=O)Nc1cc(C(F)(F)F)cnc1COC(=O)N1CC2=C(C1)CN(C(=O)c1ccc(S(N)(=O)=O)cn1)C2 [Example 1.05, [3-(2,2-dimethylpropanoylamino)-5-(trifluoromethyl)pyridin-2-yl]methyl 2-(5-sulfamoylpyridine-2-carbonyl)-1,3,4,6-tetrahydropyrrolo[3,4-c]pyrrole-5-carboxylate]",11 nM,7 nM,,
"NS(=O)(=O)c1ccc(C(=O)N2CC3=C(CN(C(=O)OCc4ccc(OC(F)(F)F)cc4)C3)C2)cc1 [Example 1.06, 4-(trifluoromethoxy)benzyl 5-(4-sulfamoylbenzoyl)-3,4,5,6-tetrahydropyrrolo[3,4-c]pyrrole-2(1H)-carboxylate]",,,10 nM,5 nM
"NS(=O)(=O)c1ccc(C(=O)N2CC3=C(CN(C(=O)c4cc(OCC5CCOCC5)nc(C5CC5)c4)C3)C2)nc1 [Example 1.07, 6-[5-[2-cyclopropyl-6-(oxan-4-ylmethoxy)pyridine-4-carbonyl]-1,3,4,6-tetrahydropyrrolo[3,4-c]pyrrole-2-carbonyl]pyridine-3-sulfonamide]",18 nM,12 nM,,
"NS(=O)(=O)c1ccc(C(=O)N2CC3=C(CN(C(=O)c4cc(OCC5CCOCC5)nc(C5CC5)c4)C3)C2)c(F)c1 [Example 1.08, 4-[5-[2-cyclopropyl-6-(oxan-4-ylmethoxy)pyridine-4-carbonyl]-1,3,4,6-tetrahydropyrrolo[3,4-c]pyrrole-2-carbonyl]-3-fluorobenzenesulfonamide]",6 nM,8 nM,,
"CC(C)(C)C(=O)Nc1cc(C(F)(F)F)cnc1COC(=O)N1CC2=C(C1)CN(C(=O)c1ccc(S(N)(=O)=O)c(F)c1F)C2 [Example 1.09, [3-(2,2-dimethylpropanoylamino)-5-(trifluoromethyl)pyridin-2-yl]methyl 2-(2,3-difluoro-4-sulfamoylbenzoyl)-1,3,4,6-tetrahydropyrrolo[3,4-c]pyrrole-5-carboxylate]",10 nM,27 nM,,

# Continued, values first:
"IC50 [1, 3]","IC50 [2, 4]",IC50 [1],IC50 [2],SMILES
19 nM,8 nM,,,"Cc1nnn(Cc2cc(C(F)(F)F)ccc2CCC(=O)N2CC3=C(C2)CN(C(=O)c2ccc(S(N)(=O)=O)cc2F)C3)n1 [Example 1.10, 3-fluoro-4-(5-(3-(2-((5-methyl-2H-tetrazol-2-yl)methyl)-4-(trifluoromethyl)phenyl)propanoyl)-1,2,3,4,5,6-hexahydropyrrolo[3,4-c]pyrrole-2-carbonyl)benzenesulfonamide]"
27 nM,9 nM,,,"CC(C)(C)C(=O)Nc1cc(C(F)(F)F)cnc1COC(=O)N1CC2=C(C1)CN(C(=O)c1c(F)cc(S(N)(=O)=O)cc1F)C2 [Example 1.11, [3-(2,2-dimethylpropanoylamino)-5-(trifluoromethyl)pyridin-2-yl]methyl 2-(2,6-difluoro-4-sulfamoylbenzoyl)-1,3,4,6-tetrahydropyrrolo[3,4-c]pyrrole-5-carboxylate]"
12.9 nM,6 nM,,,"CC(C)(C)C(=O)Nc1cc(Cl)cnc1COC(=O)N1CC2=C(C1)CN(C(=O)c1ccc(S(N)(=O)=O)cc1F)C2 [Example 1.12, [5-chloro-3-(2,2-dimethylpropanoylamino)pyridin-2-yl]methyl 2-(2-fluoro-4-sulfamoylbenzoyl)-1,3,4,6-tetrahydropyrrolo[3,4-c]pyrrole-5-carboxylate]"
7 nM,,,,"CC(C)(C)C(=O)Nc1cc(C#N)cnc1COC(=O)N1CC2=C(C1)CN(C(=O)c1ccc(S(N)(=O)=O)cc1F)C2 [Example 1.24, [5-cyano-3-(2,2-dimethylpropanoylamino)pyridin-2-yl]methyl 2-(2-fluoro-4-sulfamoylbenzoyl)-1,3,4,6-tetrahydropyrrolo[3,4-c]pyrrole-5-carboxylate]"
8 nM,,,,"CC(C)(C)C(=O)Nc1cc(C#N)cnc1COC(=O)N1CC2=C(C1)CN(C(=O)c1c(F)cc(S(N)(=O)=O)cc1F)C2 [Example 1.25, [5-cyano-3-(2,2-dimethylpropanoylamino)pyridin-2-yl]methyl 2-(2,6-difluoro-4-sulfamoylbenzoyl)-1,3,4,6-tetrahydropyrrolo[3,4-c]pyrrole-5-carboxylate]"
,,,3 nM,"CC(C)(C)C(=O)Nc1cc(C#N)cnc1COC(=O)N1CC2=C(C1)CN(C(=O)c1ccc(S(N)(=O)=O)c(F)c1F)C2 [Example 1.26, [5-cyano-3-(2,2-dimethylpropanoylamino)pyridin-2-yl]methyl 2-(2,3-difluoro-4-sulfamoylbenzoyl)-1,3,4,6-tetrahydropyrrolo[3,4-c]pyrrole-5-carboxylate]"
,1 nM,,,"CC(C)(C)C(=O)Nc1cc(C(F)(F)F)cnc1COC(=O)N1CCC2=C(CCN(C(=O)c3ccc(S(N)(=O)=O)cc3F)C2)C1 [Example 1.28, [3-(2,2-dimethylpropanoylamino)-5-(trifluoromethyl)pyridin-2-yl]methyl 6-(2-fluoro-4-sulfamoylbenzoyl)-1,3,4,5,7,8-hexahydro-2,6-naphthyridine-2-carboxylate]"
